From patent EP1144368B1, “ACETYLENIC ALPHA-AMINO ACID-BASED SULFONAMIDE HYDROXAMIC ACID TACE INHIBITORS” (priority 1999, dated 2000)

The compounds below were run on THP-1 cells (assay: THP-1 Soluble Protein Assay (LPS-stimulated; ELISA of TNF-a, TNF-R p75/80, TNF-R p55/60, IL-8)). Conditions: Homo sapiens, THP-1, read-out: THP % inhibition @ 3 µM, 3 µM.
Assay type: cell-based, human
Description: Each vial of cells are cultured for about two weeks prior to being used for an assay and then are used for only 4 to 6 weeks to screen compounds.
Plates are placed into an incubator set at 5% CO2 and at 37° C. After 4 hours of incubation, 300 ml/well of tissue culture supernatant (TCS) is removed for use in an TNF-a ELISA.
Percent change in each soluble protein evaluated from the "vehicle positive control" was calculated for each compound concentration with the following formula: % Change =(pg/ml (compound) - pg/ml (veh pos control))/(pg/ml (veh pos control) - pg/ml (veh neg control))x 100 [formula]
For the soluble protein (TNF-a, p75/80, p55/60, IL-8) studies under stimulated conditions, the mean pg/ml of duplicate wells were determined and the results expressed as percent change from "vehicle positive control".

| Structure (SMILES) | inhibition at 3 µM [%] |
| --- | --- |
| CC#CCOc1ccc(S(=O)(=O)NC(C(=O)NO)c2ccc(OCCN3CCN(C(=O)OC(C)(C)C)CC3)cc2)cc1 (centres unmarked) [Example 202, tert-Butyl 4-(2-{4-[1-({[4-(2-butynyloxy)phenyl]sulfonyl}amino)-2-(hydroxyamino)-2-oxoethyl)phenoxy]ethyl)-1-piperazinecarboxylate] | 45 |
| CC#CCOc1ccc(S(=O)(=O)NC(C(=O)NO)c2ccc(OCCN(C)C(=O)OC(C)(C)C)cc2)cc1 (centres unmarked) [Example 203, tert-Butyl 4-(2-{4-[1-({[4-{2-butynyloxy)phenyl]sulfonyl}amino)-2-(hydroxyamino)-2-oxoethyl)phenoxy]ethyl)-(methyl)carbamate] | 73 |
| CC#CCOc1ccc(S(=O)(=O)NC(C(=O)NO)c2ccc(OCCN3CCCC3)cc2)cc1 (centres unmarked) [Example 205, 2-({[4-(2-Butynyloxy)phenyl]sulfonyl}amino)-N-hydroxy-2-{4-[2-(1-pyrrolidinyl)ethoxy]phenyl}acetamide] | 66 |
| CC#CCOc1ccc(S(=O)(=O)NC(C(=O)NO)c2ccc(OCCN3CCOCC3)cc2)cc1 (centres unmarked) [Example 206, 2-({[4-(2-Butynyloxy)phenyl]sulfonyl}amino)-N-hydroxy-2-{4-[2-(4-morpholinyl)ethoxy]phenyl}acetamide] | 70 |
| CC#CCOc1ccc(S(=O)(=O)NC(C(=O)NO)c2ccc(OCCN(C)C)cc2)cc1 (centres unmarked) [Example 207, 2-({[4-(2-Butynyloxy)phenyl]sulfonyl}amino){4-[2-(dimethylamino)ethoxy]phenyl}-N-hydroxyacetamide] | 51 |
| CC#CCOc1ccc(S(=O)(=O)NC(C(=O)NO)c2ccc(OCCc3scnc3C)cc2)cc1 (centres unmarked) [Example 208, 2-({[4-(2-Butynyloxy)phenyl]sulfonyl}amino)-N-hydroxy-2-{4-[2-(4-methyl-1,3-thiazol-5-yl)ethoxy]phenyl}acetamide] | 74 |
| CC#CCOc1ccc(S(=O)(=O)NC(C(=O)NO)c2ccc(OCCOCCOCCOC)cc2)cc1 (centres unmarked) [Example 209, 2-({[4-(2-Butynyloxy)phenyl]sulfonyl}amino)-N-hydroxy-2-(4-{2-[2-(2-methoxyethoxy)ethoxy]ethoxy}phenyl)acetamide] | 75 |
| CC#CCOc1ccc(S(=O)(=O)N(C)C(C(=O)NO)c2ccc(Cl)cc2)cc1 (centres unmarked) [Example 212, 2-[{[4-(2-Butynyloxy)phenyl]sulfonyl}(methyl)amino]-2-(4-chlorophenyl)-N-hydroxyacetamide] | 86 |
| CC#CCOc1ccc(S(=O)(=O)N(C)C(CCCSc2ccc(Cl)cc2)C(=O)NO)cc1 (centres unmarked) [Example 213, 2-[{[4-(2-Butynyloxy)phenyl]sulfonyl}(methyl)amino]-5-[(4-chlorophenyl)sulfanyl]-N-hydroxypentanamide] | 87 |
| CC#CCOc1ccc(S(=O)(=O)N2CCNCC2C(=O)NO)cc1 (centres unmarked) [Example 214, 1-(4-But-2-ynyloxy-benzenesulfonyl)-piperazine-2-carboxylic acidhydroxyamide] | 71 |
| CC#CCOc1ccc(S(=O)(=O)N2CCN(C(=O)N3CCOCC3)CC2C(=O)NO)cc1 (centres unmarked) [Example 215, 1-(4-But-2-ynyloxy-benzenesulfonyl)-4-(morpholine-4-carbonyl)-piperazine-2-carboxylic acid hydroxyamide] | 51 |
| CC#CCOc1ccc(S(=O)(=O)N2CCN(C(=O)N(CC)CC)CC2C(=O)NO)cc1 (centres unmarked) [Example 216, 4-(4-But-2-ynyloxy-benzenesulfonyl)-piperazine-1,3-dicarboxylic acid 1-diethylamide 3-hydroxyamide] | 59 |
| CC#CCOc1ccc(S(=O)(=O)N2CCN(C(=O)N3CCCC3)CC2C(=O)NO)cc1 (centres unmarked) [Example 217, 1-(4-But-2-ynyloxy-benzenesulfonyl)-4-(pyrrolidine-1-carbonyl)-piperazine-2-carboxylic acid hydroxyamide] | 73 |
| CC#CCOc1ccc(S(=O)(=O)N2CCN(C(=O)N(C(C)C)C(C)C)CC2C(=O)NO)cc1 (centres unmarked) [Example 218, 4-(4-But-2-ynyloxy-benzenesulfonyl)-piperazine-1,3-dicarboxylic acid 1-diisopropylamide 3-hydroxyamide] | 56 |
| CC#CCOc1ccc(S(=O)(=O)N2CCN(C(=O)OCc3ccccc3)CC2C(=O)NO)cc1 (centres unmarked) [Example 219, Benzyl 4-{[4-(2-butynyloxy)phenyl]sulfonyl}-3-[(hydroxyamino)carbonyl]-1-piperazinecarboxylate] | 87 |
| CC#CCOc1ccc(S(=O)(=O)N2CCN(C(=O)N(C)c3ccccc3)CC2C(=O)NO)cc1 (centres unmarked) [Example 220, 4-(4-But-2-ynyloxy-benzenesulfonyl)-piperazine-1,3-dicarboxylic acid 3-hydroxyamide 1-(methyl-phenyl-amide)] | 60 |
| CC#CCOc1ccc(S(=O)(=O)N2CCN(C(=O)Nc3ccc(OC)cc3)CC2C(=O)NO)cc1 (centres unmarked) [Example 221, 4-{[4-(2-Butynyloxy)phenyl]sulfonyl}-N-3-hydroxy-N-1-(4-methoxyphenyl)-1,3-piperazinedicarboxamide] | 58 |
| CC#CCOc1ccc(S(=O)(=O)N2CCN(C(=O)Nc3ccc(F)cc3)CC2C(=O)NO)cc1 (centres unmarked) [Example 222, 4-{[4-(2-Butynyloxy)phenyl]sulfonyl}-N-1-(4-fluorophenyl)-N-3-hydroxy-1,3-piperazinedicarboxamide] | 61 |

| Structure (SMILES) | inhibition at 3 µM [%] |
| --- | --- |
| CC#CCOc1ccc(S(=O)(=O)N2CCN(C(=O)Nc3cc(Cl)cc(Cl)c3)CC2C(=O)NO)cc1 (centres unmarked) [Example 223, 4-{[4-(2-Butynyloxy)phenyl]sulfonyl}-N-1-(3,5-dichlorophenyl)-N-3-hydroxy-1,3-piperazinedicarboxamide] | 42 |
| CC#CCOc1ccc(S(=O)(=O)N2CCN(C(C)=O)CC2C(=O)NO)cc1 (centres unmarked) [Example 224, 4-Acetyl-1-(4-but-2-ynyloxy-benzenesulfonyl)-piperazine-2-carboxylic acid hydroxyamide] | 81 |
| CC#CCOc1ccc(S(=O)(=O)N2CCN(C(=O)CC)CC2C(=O)NO)cc1 (centres unmarked) [Example 225, 1-(4-But-2-ynyloxy-benzenesulfonyl)-4-propionyl-piperazine-2-carboxylic acid hydroxyamide] | 76 |
| CC#CCOc1ccc(S(=O)(=O)N2CCN(C(=O)OC)CC2C(=O)NO)cc1 (centres unmarked) [Example 228, 4-(4-But-2-ynyloxy-benzenesulfonyl)-3-hydroxycarbamoyl-piperazine-1-carboxylic acid methyl ester] | 81 |
| CC#CCOc1ccc(S(=O)(=O)N2CCN(C(=O)CNC(=O)OC(C)(C)C)CC2C(=O)NO)cc1 (centres unmarked) [Example 229, {2-[4-(4-But-2-ynyloxy-bemenesulfonyl)-3-hydroxycarbamoyl-piperazin-1-yl]-2-oxo-ethyl}-carbamic acid tert-butyl ester] | 85 |
| CC#CCOc1ccc(S(=O)(=O)N2CCN(C(=O)CN)CC2C(=O)NO)cc1 (centres unmarked) [Example 230, 4-Aminoacetyl-1-(4-but-2-ynyloxy-benzenesulfonyl)-piperazine-2-carboxylic acid hydroxyamide] | 27 |
| CC#CCOc1ccc(S(=O)(=O)N2CCN(C(=O)C3(C)COC(C)(C)OC3)CC2C(=O)NO)cc1 (centres unmarked) [Example 231, 1-{[4-(2-Butynyloxy)phenyl]sulfonyl}-N-hydroxy-4-[(2,2,5-trimethyl-1,3-dioxan-5-yl)carbonyl)-2-piperazinecarboxamide] | 73 |
| CC#CCOc1ccc(S(=O)(=O)N2CCN(C(=O)C(C)(CO)CO)CC2C(=O)NO)cc1 (centres unmarked) [Example 232, 1-{[4-(2-Butynyloxy)phenyl]sulfonyl}-N-hydroxy-4-[3-hydroxy-2-(hydroxymethyl)-2-methylpropanoyl]-2-piperazinecarboxamide] | 72 |
| CC#CCOc1ccc(S(=O)(=O)N2CCN(Cc3ccc(Br)cc3)CC2C(=O)NO)cc1 (centres unmarked) [Example 233, 4-(4-Bromo-benzyl)-1-(4-but-2-ynyloxy-benzenesulfonyl)-piperazine-2-carboxylic acid hydroxyamide] | 33 |
| CC#CCOc1ccc(S(=O)(=O)N2CCSCC2C(=O)NO)cc1 (centres unmarked) [Example 239] | 84 |
| CC#CCOc1ccc(S(=O)(=O)N2CCSC3(CCN(Cc4ccccc4)CC3)C2C(=O)NO)cc1 (centres unmarked) [Example 241, 9-Benzyl-4-{[4-(2-butynyloxy)phenyl]sulfonyl}-N-hydroxy-1-thia-4,9-diazaspiro[5.5]undecane-5-carboxamide] | 94 |
| CC#CCOc1ccc(S(=O)(=O)N2CCSC3(CCN(C)CC3)C2C(=O)NO)cc1 (centres unmarked) [Example 242, 9-methyl-4-{[4-(2-butynyloxy)phenyl]sulfonyl}-N-hydroxy-1-thia-4,9-diazaspiro[5.5]undecane-5-carboxamide] | 73 |
| CC1(C)SCCN(S(=O)(=O)c2ccc(OCC#CCCOC3CCCCO3)cc2)C1C(=O)NO (centres unmarked) [Example 243, N-Hydroxy-2,2-dimethyl-4-[(4-{[5-(tetrahydro-2H-pyran-2-yloxy)-2-pentynyl]oxy}phenyl)sulfonyl]-3-thiomorpholine carboxamide] | 52 |
| CC1(C)SCCN(S(=O)(=O)c2ccc(OCC#CCCO)cc2)C1C(=O)NO (centres unmarked) [Example 244, N-Hydroxy-4-({4-[(5-hydroxy-2-pentynyl)oxy]phenyl}sulfonyl)-2,2-dimethyl-3-thiomorpholine carboxamide] | 57 |
| CC(C)(C)OC(=O)NCCC#CCOc1ccc(S(=O)(=O)N2CCSC(C)(C)C2C(=O)NO)cc1 (centres unmarked) [Example 245, tert-Butyl 5-[4-({3-[(hydroxyamino)carbonyl]-2,2-dimethyl-4-thiomorpholinyl}sulfonyl)phenoxy]-3-pentynylcarbamate] | 37 |
| CC1(C)SCCN(S(=O)(=O)c2ccc(OCC#CCCN)cc2)C1C(=O)NO (centres unmarked) [Example 246, 4-({4-[(5-Amino-2-pentynyl)oxy]phenyl}sulfonyl)-N-hydroxy-2,2-dimethyl-3-thiomorpholine carboxamide] | 4 |
| CC1(C)SCCN(S(=O)(=O)c2ccc(OCC#CCOCc3ccccc3)cc2)C1C(=O)NO (centres unmarked) [Example 247, 4-[(4-{[4-(Benzyloxy)-2-butynyl]oxy}phenyl)sulfonyl]-N-hydroxy-2,2-dimethyl-3-thiomorpholine carboxamide] | 57 |
